Test results reported in patent US20210386367A1, “DEVICES AND SYSTEMS FOR GASTROINTESTINAL MICROBIOME DETECTION AND MANIPULATION” (Progenity, Inc., priority 2018, published 2021).

Assays:
[1] = tested on: E. coli spontaneous mutants; assay: Broth microdilution MIC of spontaneous mutants; format: cell-based, Escherichia coli
Method: (§1) Select isolates were subcultured onto agar containing drug at the selection concentration, were identified by MALDI, and were frozen for broth microdilution MIC testing as described below.
(§2) To determine whether colonies growing on drug selection plates had elevated MIC values to the selecting antibiotic, susceptibility testing by broth microdilution was conducted on isolated mutants following methodology recommended by CLSI (1), (2), and (3) “Performance Standards for Antimicrobial Susceptibility Testing; Twenty-Eighth Informational Supplement.,” CLSI document M100-S28, 2018.
(§3) All wells in columns 2 through 12 of a standard 96-well microdilution plate (Costar 3795) were filled with 150 μL of the appropriate diluent. Then, 300 μL of the test agents were added to the wells of column 1 of the plates at […] the highest final concentration to be tested. Serial two-fold dilutions were made across the rows through column 11 using the Biomek 2000. The wells of column 12 contained no drug and served as the growth control wells. This plate served as the “mother plate” from which selected MIC assay plates or “daughter plates” were made.
(§4) 2 μL of drug solution from each well of a mother plate was added to each corresponding well of the daughter plate in a single step. A standardized inoculum of each aerobic test organism was prepared per CLSI methods to equal a 0.5 McFarland standard, followed by a dilution of 1:20 in MHB II. The plates were then inoculated with 10 μL of the diluted inoculum using the Biomek 2000 from low to high drug concentration, resulting in a final concentration of approximately 5×10^5 CFU/mL. An un-inoculated plate was incubated for the purpose of assessing solubility of the drug in the test media.
(§5) The plates for the aerobic tests were stacked 3-4 high, covered with a sterile lid on the top plate, and incubated aerobically at 35° C. for 18-20 hr. The MIC was recorded as the lowest concentration of drug that inhibited visible growth of the organism.

[2] = tested on: Streptococcus spp. spontaneous mutants; assay: organism not typed; format: cell-based
Method: as §1, §2, §3, §4, §5

[3] = tested on: Bacteroides spp. spontaneous mutants; assay: Broth microdilution MIC of spontaneous mutants; format: cell-based
Method: as §1, §2, §3
Daughter plates for anaerobic organisms were transferred to a Bactron II anaerobic chamber (Sheldon Manufacturing Inc., Cornelius, Oreg.) to reduce for 1 hour prior to inoculation. The inoculum for each organism was prepared in the anaerobic chamber and dispensed into sterile disposable reservoirs. Inoculation was completed using a multichannel pipette to transfer 10 μL of the inoculum into each well of the daughter plate. This yielded a final cell concentration in the daughter plates of approximately 1×10^6 CFU/mL.

Measured: MIC

COc1c(N2C[C@@H]3CCCN[C@@H]3C2)c(F)cc2c(=O)c(C(=O)O)cn(C3CC3)c12 [MOX]
0.25 µg/mL: [3]; B. vulgatus ATCC 8482, selected on rifaximin 4X MIC, Colony B
0.03 µg/mL: [1]; E. coli ATCC 25922 Parent (Table 52) | [1]; E. coli ATCC 35218, selected on rifaximin 4X MIC, Colony A | [1]; E. coli ATCC 35218, selected on rifaximin 4X MIC, Colony B | [1]; E. coli ATCC 35218, selected on rifaximin 8X MIC, Colony A | [1]; E. coli ATCC 35218, selected on rifaximin 8X MIC, Colony B | [1]; E. coli ATCC 35218 Parent (Table 52) | [1]; E. coli MMX 1312, selected on ceftriaxone 4X MIC, Colony A | [1]; E. coli MMX 1312, selected on ceftriaxone 4X MIC, Colony C | [1]; E. coli MMX 1312, selected on ceftriaxone 8X MIC, Colony A | [1]; E. coli MMX 1312, selected on ceftriaxone 8X MIC, Colony B | [1]; E. coli MMX 1312, selected on ceftriaxone 8X MIC, Colony C | [1]; E. coli MMX 1312, selected on rifaximin 4X MIC, Colony A | [1]; E. coli MMX 1312, selected on rifaximin 4X MIC, Colony B | [1]; E. coli MMX 1312, selected on rifaximin 8X MIC, Colony A | [1]; E. coli MMX 1312, selected on rifaximin 8X MIC, Colony B | [1]; E. coli MMX 1312 Parent | [1]; E. coli MMX 1312 Parent (Table 49) | [1]; E. coli MMX 1312 Parent (Table 52) | [1]; E. coli MMX 1312 mutant selected on meropenem 4X MIC, colony A | [1]; E. coli MMX 1312 mutant selected on meropenem 4X MIC, colony B | [1]; E. coli MMX 1312 mutant selected on meropenem 4X MIC, colony C | [1]; E. coli MMX 1312 mutant selected on meropenem 8X MIC, colony A | [1]; E. coli MMX 1312 mutant selected on meropenem 8X MIC, colony B | [1]; E. coli MMX 1312 mutant selected on meropenem 8X MIC, colony C | [2]; S. agaloctiae ATCC 13813, selected on rifaximin 8X MIC, Colony B
0.06 µg/mL: [1]; E. coli MMX 1312, selected on ceftriaxone 4X MIC, Colony B | [2]; S. agaloctiae ATCC 13813, selected on rifaximin 4X MIC, Colony A | [2]; S. agaloctiae ATCC 13813, selected on rifaximin 4X MIC, Colony B | [2]; S. agaloctiae ATCC 13813, selected on rifaximin 8X MIC, Colony A | [2]; S. agaloctiae ATCC 13813 Parent | [2]; S. pneumoniae ATCC 49619, selected on rifaximin 4X MIC, Colony A | [2]; S. pneumoniae ATCC 49619, selected on rifaximin 4X MIC, Colony B | [2]; S. pneumoniae ATCC 49619, selected on rifaximin 8X MIC, Colony A | [2]; S. pneumoniae ATCC 49619, selected on rifaximin 8X MIC, Colony B | [2]; S. pyogenes ATCC 49399, selected on rifaximin 4X MIC, Colony A | [2]; S. pyogenes ATCC 49399, selected on rifaximin 4X MIC, Colony B | [2]; S. pyogenes ATCC 49399, selected on rifaximin 8X MIC, Colony A | [2]; S. pyogenes ATCC 49399, selected on rifaximin 8X MIC, Colony B | [2]; S. pyogenes ATCC 49399 Parent | [3]; B. fragilis ATCC 25285, selected on rifaximin 4X MIC, Colony A | [3]; B. fragilis ATCC 25285 Parent
0.5 µg/mL: [3]; B. ovatus MMX 3503, selected on rifaximin 4X MIC, Colony B | [3]; B. vulgatus ATCC 8482, selected on ceftriaxone 4X MIC, Colony A | [3]; B. vulgatus ATCC 8482, selected on ceftriaxone 4X MIC, Colony B | [3]; B. vulgatus ATCC 8482, selected on rifaximin 4X MIC, Colony A | [3]; B. vulgatus ATCC 8482, selected on rifaximin 8X MIC, Colony A | [3]; B. vulgatus ATCC 8482, selected on rifaximin 8X MIC, Colony B | [3]; B. vulgatus ATCC 8482 Parent (Table 50) | [3]; B. vulgatus ATCC 8482 Parent (Table 54)
0.12 µg/mL: [2]; S. pneumoniae ATCC 49619 Parent | [3]; B. fragilis ATCC 25285, selected on rifaximin 4X MIC, Colony B | [3]; B. fragilis ATCC 25285, selected on rifaximin 8X MIC, Colony A | [3]; B. fragilis ATCC 25285, selected on rifaximin 8X MIC, Colony B
0.015 µg/mL: [1]; E. coli ATCC 25922, selected on rifaximin 4X MIC, Colony A | [1]; E. coli ATCC 25922, selected on rifaximin 4X MIC, Colony B | [1]; E. coli ATCC 25922, selected on rifaximin 8X MIC, Colony A | [1]; E. coli ATCC 25922, selected on rifaximin 8X MIC, Colony B
2 µg/mL: [3]; B. ovatus MMX 3503, selected on rifaximin 4X MIC, Colony A
1 µg/mL: [3]; B. ovatus MMX 3503, selected on rifaximin 8X MIC, Colony A | [3]; B. ovatus MMX 3503, selected on rifaximin 8X MIC, Colony B | [3]; B. ovatus MMX 3503 Parent
